The source of these data is ChEMBL document CHEMBL2417465, “One-pot synthesis and cytotoxicity studies of new Mannich base derivatives of polyether antibiotic--lasalocid acid” (Bioorg Med Chem Lett, 2013).

Data set [1] deals with MCF7. The experiment in a line: Selectivity index, ratio of IC50 for HLMEC cells to IC50 for human MCF7 cells. Type of data set: functional.
Data set [2] has as its system HT-29. The experiment in a line: Selectivity index, ratio of IC50 for HLMEC cells to IC50 for human HT-29 cells. Type of data set: functional.
Data set [3] concerns P388. The experiment in a line: Selectivity index, ratio of IC50 for HLMEC cells to IC50 for mouse P388 cells. Type of data set: functional.
Another data set deals with BALB/3T3. The experiment in a line: Cytotoxicity against mouse BALB/3T3 cells after 72 hrs by SRB assay. Type of data set: cell-based. The following applies: for IC50: Mus musculus, BALB/3T3, 72 h; for Activity: mouse, balb/3t3, 72 h. (In general: The SRB assay estimates cell density from bound dye.)
For data set [4], the system named is MCF7. Kind of data set: Selectivity index, ratio of IC50 for mouse BALB/3T3 cells to IC50 for human MCF7 cells. Type of data set: functional.
In data set [5] the test system is MCF7. The experiment in a line: Cytotoxicity against human MCF7 cells after 72 hrs by MTT assay. Type of data set: functional, cell-based. The settings on record: for IC50: MCF7, 72 h. A general note: Formazan colour is commonly taken as a measure of viable cells.
For data set [6], the system named is A549. Kind of data set: Selectivity index, ratio of IC50 for HLMEC cells to IC50 for human A549 cells. Type of data set: functional.
Data set [7] relates to P388. Kind of data set: Selectivity index, ratio of IC50 for mouse BALB/3T3 cells to IC50 for mouse P388 cells. Type of data set: functional.
The subject of data set [8] is HT-29. The experiment in a line: Cytotoxicity against human HT-29 cells after 72 hrs by MTT assay. Type of data set: functional, cell-based. The settings on record: for IC50: HT-29, 72 h.
Data set [9] concerns P388. Kind of data set: Cytotoxicity against mouse P388 cells after 72 hrs by MTT assay. Type of data set: functional, cell-based. The settings on record: for IC50: P388, 72 h.
Data set [10] has as its system A549. The experiment in a line: Selectivity index, ratio of IC50 for mouse BALB/3T3 cells to IC50 for human A549 cells. Type of data set: functional.
Data set [11] deals with A549. Kind of data set: Cytotoxicity against human A549 cells after 72 hrs by MTT assay. Type of data set: functional, cell-based. The settings on record: for IC50: A549, 72 h.
The nature of data set [12]: Cytotoxicity against HLMEC cells after 72 hrs by SRB assay. Type of data set: cell-based, Homo sapiens. The settings on record: for IC50: Homo sapiens, HLMEC; for Activity: human, hlmec.
Data set [13] concerns HT-29. Kind of data set: Selectivity index, ratio of IC50 for mouse BALB/3T3 cells to IC50 for human HT-29 cells. Type of data set: functional.

SMILES strings stand for the structures. Active and inactive are the calls of the source. No cut-off for these calls is given here.

On to `CC[C@@H](C(=O)[C@@H](C)[C@@H](O)[C@H](C)CCc1ccc(C)c(O)c1CN(Cc1ccccc1)Cc1ccccc1)[C@H]1O[C@](CC)([C@H]2CC[C@](O)(CC)[C@H](C)O2)C[C@@H]1C`, for which the “Ratio IC50” value was found to be 0.25 in the data set on MCF7 [1]; 0.06 in the data set on HT-29 [2]; 1.12 in the data set with P388 [3]; 4.17 with MCF7 [4]; 0.13 with A549 [6]; 18.72 with P388 [7]. Also, the “Ratio IC50” value in the data set with A549 [10] came out at 2.09; in the data set on HT-29 [13], 1.02. Besides, the IC50 (usually the concentration that gives 50% inhibition) amounted to 76.9 µM in the data set on BALB/3T3; 18.4 µM with MCF7 [5]; 75.6 µM in the data set with HT-29 [8]; 4.11 µM in the data set with P388 [9]; 36.8 µM in the data set with A549 [11]; 4.61 µM in data set [12].

In the case of `CCCN(CCC)Cc1c(CC[C@@H](C)[C@H](O)[C@H](C)C(=O)[C@H](CC)[C@H]2O[C@](CC)([C@H]3CC[C@](O)(CC)[C@H](C)O3)C[C@@H]2C)ccc(C)c1O`, the “Ratio IC50” value in the data set on MCF7 [1] came to 0.73; in the data set on HT-29 [2] it was 0.59; in the data set on P388 [3], 1.15; in the data set with MCF7 [4], 4.04; with A549 [6], 0.78; in the data set on P388 [7], 6.35. Moreover, the “Ratio IC50” value was 4.29 in the data set on A549 [10] and 3.23 with HT-29 [13]. Besides, the IC50 with BALB/3T3 worked out at 22.7 µM; in the data set with MCF7 [5], 5.62 µM; in the data set with HT-29 [8], 7.03 µM; with P388 [9], 3.58 µM; in the data set with A549 [11], 5.3 µM; in data set [12] it was 4.12 µM.

For the compound `CC[C@@H](C(=O)[C@@H](C)[C@@H](O)[C@H](C)CCc1ccc(C)c(O)c1CN(C(C)C)C(C)C)[C@H]1O[C@](CC)([C@H]2CC[C@](O)(CC)[C@H](C)O2)C[C@@H]1C`, the “Ratio IC50” value in the data set on MCF7 [1] is 0.84; with HT-29 [2], 0.87; in the data set with P388 [3], 0.97; with MCF7 [4], 3.1; in the data set on A549 [6] it was 0.82; with P388 [7] it was 3.56. The “Ratio IC50” value in the data set with A549 [10] is 3.03; in the data set with HT-29 [13], 3.2. Besides, the IC50 came to 17.1 µM in the data set on BALB/3T3; 5.5 µM with MCF7 [5]; 5.33 µM with HT-29 [8]; 4.79 µM in the data set on P388 [9]; 5.62 µM in the data set with A549 [11]; 4.63 µM in [12].

Regarding `CCCCCCCCN(CCCCCCCC)Cc1c(CC[C@@H](C)[C@H](O)[C@H](C)C(=O)[C@H](CC)[C@H]2O[C@](CC)([C@H]3CC[C@](O)(CC)[C@H](C)O3)C[C@@H]2C)ccc(C)c1O`, the Activity result (in the data set with BALB/3T3; in data set [12]) was “Non-toxic” throughout. In addition, the result in the data set on MCF7 [5], in the data set with HT-29 [8], in the data set with P388 [9] and in the data set on A549 [11] was inactive.

Take `CCCCN(CCCC)Cc1c(CC[C@@H](C)[C@H](O)[C@H](C)C(=O)[C@H](CC)[C@H]2O[C@](CC)([C@H]3CC[C@](O)(CC)[C@H](C)O3)C[C@@H]2C)ccc(C)c1O`: the “Ratio IC50” value is listed as 0.73 in the data set on MCF7 [1], 0.63 in the data set with HT-29 [2], 0.69 with P388 [3] and 0.84 with A549 [6]. Moreover, the IC50 with MCF7 [5] is 6.11 µM; with HT-29 [8], 7.02 µM; with P388 [9], 6.35 µM; with A549 [11], 5.27 µM; in data set [12], 4.43 µM.

For the compound `CC[C@@H](C(=O)[C@@H](C)[C@@H](O)[C@H](C)CCc1ccc(C)c(O)c1CN1CCOCC1)[C@H]1O[C@](CC)([C@H]2CC[C@](O)(CC)[C@H](C)O2)C[C@@H]1C`, the “Ratio IC50” value is listed as 2.33 in the data set on MCF7 [1]; 0.85 with HT-29 [2]; 1.5 in the data set with P388 [3]; 6.89 with MCF7 [4]; 0.71 in the data set on A549 [6]; 4.44 with P388 [7]. In addition, the entries for the “Ratio IC50” value in the data set on A549 [10] and in the data set with HT-29 [13] were 2.1 and 2.5, respectively. For the same compound, the IC50 in the data set with BALB/3T3 stood at 14.3 µM; with MCF7 [5], 2.08 µM; in the data set on HT-29 [8], 5.74 µM; in the data set on P388 [9], 3.23 µM; in the data set with A549 [11], 6.81 µM; in data set [12], 4.86 µM.

In the case of `CC[C@@H](C(=O)[C@@H](C)[C@@H](O)[C@H](C)CCc1ccc(C)c(O)c1C(=O)O)[C@H]1O[C@](CC)([C@H]2CC[C@](O)(CC)[C@H](C)O2)C[C@@H]1C` [LASALOCID], the “Ratio IC50” value in the data set on MCF7 [1] was found to be 0.56; with HT-29 [2] it was 0.9; in the data set with P388 [3], 0.39; in the data set with MCF7 [4], 2.36; in the data set with A549 [6] it was 0.97; with P388 [7] it was 1.62. The “Ratio IC50” value is reported as 4.08 in the data set with A549 [10] and 3.77 in the data set on HT-29 [13]. Besides, the IC50 amounted to 7.35 µM in the data set with BALB/3T3; 3.12 µM with MCF7 [5]; 1.95 µM in the data set with HT-29 [8]; 4.54 µM in the data set on P388 [9]; 1.8 µM with A549 [11]; 1.75 µM in data set [12].

Regarding `CCCCCCCCCCCCN(CCCCCCCCCCCC)Cc1c(CC[C@@H](C)[C@H](O)[C@H](C)C(=O)[C@H](CC)[C@H]2O[C@](CC)([C@H]3CC[C@](O)(CC)[C@H](C)O3)C[C@@H]2C)ccc(C)c1O`, the Activity result (in the data set on BALB/3T3; in [12]) was “Non-toxic” throughout. Further, the result in the data set on MCF7 [5], with HT-29 [8], in the data set with P388 [9] and with A549 [11] was inactive.
